Assay: Fatty acid composition of pig tissues (ham, loin, belly, skin) after feeding SDA ethyl ester diets, 35 day study
Assay type: in vivo, pigs
Details: 35 days
Description: A 35 day study was conducted to determine whether pigs fed a diet containing SDA could enhance tissues with improved fatty acid profiles including increased levels of SDA, EPA, and DHA.
Four test diets (Treatment 2, 3, 4, and 5) with SDA ethyl ester substituted for corn oil to provide 0.2, 0.4, 0.6 and 0.8% (w/w SDA active ingredient, as-is basis) were fed ad libitum to one pen of four pigs throughout the 35-day test period Table 4). All diets were fed in meal form. Treatment 6 was fed the same diet as Treatment 5, but for a duration of only 21 days.
All pigs were individually weighed at initiation of the acclimation and test period, and immediately prior to slaughter. Feed consumption per pen was recorded. Upon completion of the feeding period, pigs were slaughtered for tissue collection and carcass evaluation. Pigs were slaughtered using standard industry practices (electrical stunning, exsanguinations, scalding, dehairing and evisceration). Live weights prior to slaughter and hot carcass weights were recorded. The left side of each carcass was fabricated and samples were obtained from the loin (longissimus muscle), ham (semimembranosus muscle) and belly (a section from the center of the belly) for sensory evaluation, fatty acid, and proximate analysis. Prior to removing the sample for sensory and fatty and proximate analysis from the belly the firmness of the belly was evaluated using a flop test. At 24 hr postmortem fat thickness (10th rib), loin eye area (10th rib), visual color, firmness and marbling, Minolta color (L*a*b*), pH, and drip loss were measured.
In order to evaluate the fatty acid composition of pig tissues (loin, ham, skin, and belly), samples were stored at −80° C. until evaluation. After thawing, ˜22 g of fresh pig tissue was chopped into small pieces and thoroughly mixed before 10 g was sub sampled and lyophilized. Lyophilized samples were ground in 30 ml Sarstedt tubes with two ball bearings using a Mega Grinder. Ground samples (loin and ham: 50 mg; skin: 100 mg; belly: 150 mg; diet: 500 mg) were directly methylated with sulfuric acid in methanol (loin and ham: 1 mL; skin: 3 mL; belly: 10 mL; diet: 1.5 mL) sealed in the presence of butylated hydroxytoluene (50 mg BHT in 100 ml reagent) in reflux conditions of 90° C. Resultant fatty acid methyl esters (FAME's) were separated by capillary gas chromatography (GC) and detected by flame ionization detector (FID). The column used was a Supelco Omegawax 250 capillary column with dimensions of 30 m×0.25 mm×0.25 μm film thickness. The run time was 32 minutes. Peaks were identified based on their relative retention time compared to a FAME reference mixture. Quantification was achieved by using an internal standard (c15:0 triacylglyceride (TAG) for pig tissue samples and c17:0 TAG for diet samples). Results are reported as FA g/100 g fat with theoretical response correction.
For Table 6 below, each value represents g/100 g total fatty acids a mean of 4 samples (1 sample from each of 4 pigs) per treatment.

CC/C=C\C/C=C\C/C=C\C/C=C\CCCCC(=O)O [SDA, stearidonic acid]
24:1 n-9, ham (0.4% SDA feed): 0.05 g FA per 100 g fat
Total PUFA, ham (0.4% SDA feed): 13.34 g FA per 100 g fat
Total monoenes, ham (0.4% SDA feed): 48.71 g FA per 100 g fat
Total n-3, ham (0.4% SDA feed): 1.23 g FA per 100 g fat
Total n-6, ham (0.4% SDA feed): 12.11 g FA per 100 g fat
Total saturates, ham (0.4% SDA feed): 33.55 g FA per 100 g fat
n-6/n-3, ham (0.4% SDA feed): 9.85
12:0, ham (0.6% SDA feed): 0.06 g FA per 100 g fat
14:0, ham (0.6% SDA feed): 1.05 g FA per 100 g fat
16:0, ham (0.6% SDA feed): 21.49 g FA per 100 g fat
16:1 n-7, ham (0.6% SDA feed): 3.03 g FA per 100 g fat
16:1 n-9, ham (0.6% SDA feed): 0.26 g FA per 100 g fat
18:0, ham (0.6% SDA feed): 11.47 g FA per 100 g fat
18:1 n-7, ham (0.6% SDA feed): 4.08 g FA per 100 g fat
18:1 n-9, ham (0.6% SDA feed): 37.64 g FA per 100 g fat
18:2 n-6 (LA), ham (0.6% SDA feed): 9.92 g FA per 100 g fat
18:3 n-3 (ALA), ham (0.6% SDA feed): 0.22 g FA per 100 g fat
18:3 n-6 (GLA), ham (0.6% SDA feed): 0.14 g FA per 100 g fat
18:4 n-3 (SDA), ham (0.6% SDA feed): 0.16 g FA per 100 g fat
20:0, ham (0.6% SDA feed): 0.16 g FA per 100 g fat
20:1 n-7, ham (0.6% SDA feed): 0.04 g FA per 100 g fat
20:1 n-9, ham (0.6% SDA feed): 0.59 g FA per 100 g fat
20:1 n-11, ham (0.6% SDA feed): 0.03 g FA per 100 g fat
20:2 n-6, ham (0.6% SDA feed): 0.28 g FA per 100 g fat
20:3 n-3, ham (0.6% SDA feed): 0.04 g FA per 100 g fat
20:3 n-6 (DGLA), ham (0.6% SDA feed): 0.43 g FA per 100 g fat
20:4 n-3 (ETA), ham (0.6% SDA feed): 0.26 g FA per 100 g fat
20:4 n-6 (AA), ham (0.6% SDA feed): 2.60 g FA per 100 g fat
20:5 n-3 (EPA), ham (0.6% SDA feed): 0.54 g FA per 100 g fat
22:0, ham (0.6% SDA feed): 0.07 g FA per 100 g fat
22:1 n-9, ham (0.6% SDA feed): 0.00 g FA per 100 g fat
22:1 n-11, ham (0.6% SDA feed): 0.00 g FA per 100 g fat
22:1 n-13, ham (0.6% SDA feed): 0.00 g FA per 100 g fat
22:2 n-7, ham (0.6% SDA feed): 0.00 g FA per 100 g fat
22:3 n-6, ham (0.6% SDA feed): 0.24 g FA per 100 g fat
22:5 n-3 (DPA), ham (0.6% SDA feed): 0.67 g FA per 100 g fat
22:6 n-3 (DHA), ham (0.6% SDA feed): 0.10 g FA per 100 g fat
24:1 n-9, ham (0.6% SDA feed): 0.06 g FA per 100 g fat
Total PUFA, ham (0.6% SDA feed): 15.59 g FA per 100 g fat
Total monoenes, ham (0.6% SDA feed): 45.72 g FA per 100 g fat
Total n-3, ham (0.6% SDA feed): 1.99 g FA per 100 g fat
Total n-6, ham (0.6% SDA feed): 13.60 g FA per 100 g fat
Total saturates, ham (0.6% SDA feed): 34.30 g FA per 100 g fat
n-6/n-3, ham (0.6% SDA feed): 6.83
12:0, ham (0.8% SDA feed): 0.05 g FA per 100 g fat
14:0, ham (0.8% SDA feed): 0.96 g FA per 100 g fat
16:0, ham (0.8% SDA feed): 20.70 g FA per 100 g fat
16:1 n-7, ham (0.8% SDA feed): 2.90 g FA per 100 g fat
16:1 n-9, ham (0.8% SDA feed): 0.53 g FA per 100 g fat
18:0, ham (0.8% SDA feed): 11.25 g FA per 100 g fat
18:1 n-7, ham (0.8% SDA feed): 4.27 g FA per 100 g fat
18:1 n-9, ham (0.8% SDA feed): 35.19 g FA per 100 g fat
18:2 n-6 (LA), ham (0.8% SDA feed): 11.90 g FA per 100 g fat
18:3 n-3 (ALA), ham (0.8% SDA feed): 0.25 g FA per 100 g fat
18:3 n-6 (GLA), ham (0.8% SDA feed): 0.21 g FA per 100 g fat
18:4 n-3 (SDA), ham (0.8% SDA feed): 0.24 g FA per 100 g fat
20:0, ham (0.8% SDA feed): 0.13 g FA per 100 g fat
20:1 n-7, ham (0.8% SDA feed): 0.04 g FA per 100 g fat
20:1 n-9, ham (0.8% SDA feed): 0.52 g FA per 100 g fat
20:1 n-11, ham (0.8% SDA feed): 0.03 g FA per 100 g fat
20:2 n-6, ham (0.8% SDA feed): 0.27 g FA per 100 g fat
20:3 n-3, ham (0.8% SDA feed): 0.03 g FA per 100 g fat
20:3 n-6 (DGLA), ham (0.8% SDA feed): 0.50 g FA per 100 g fat
20:4 n-3 (ETA), ham (0.8% SDA feed): 0.29 g FA per 100 g fat
20:4 n-6 (AA), ham (0.8% SDA feed): 3.12 g FA per 100 g fat
20:5 n-3 (EPA), ham (0.8% SDA feed): 0.87 g FA per 100 g fat
22:0, ham (0.8% SDA feed): 0.10 g FA per 100 g fat
22:1 n-9, ham (0.8% SDA feed): 0.00 g FA per 100 g fat
22:1 n-11, ham (0.8% SDA feed): 0.00 g FA per 100 g fat
22:1 n-13, ham (0.8% SDA feed): 0.00 g FA per 100 g fat
22:2 n-7, ham (0.8% SDA feed): 0.00 g FA per 100 g fat

From patent US20090197955A1, “METHODS OF IMPROVING DHA DEPOSITION AND RELATED FUNCTION AND/OR DEVELOPMENT” (Monsanto Company, priority 2008, published 2009)
